Entries after “also recorded” stand apart in the source; their conditions may differ.
How the values were obtained:
Alpha-SMA [1] = assay: UUO study: quantitative RT-PCR of kidney, Alpha-SMA; type: in vivo, C57BL/6 mice; conditions: UUO mice kidney
Procedure: (§1) Quantitative RT-PCR: Total ribonucleic acid (RNA) was extracted from kidney samples using RNAiso (Takara Bio, Japan) according to the manufacturer's instructions. One μg of RNA was reverse-transcribed using a reaction mixture containing 4.4 micromolar (mM) of magnesium chloride (MgCl2) (F. Hoffmann-La Roche, Switzerland), 40 U RNase inhibitor (Toyobo, Japan), 0.5 mM dNTP (Promega, USA), 6.28 μM random hexamer (Promega), 5× first strand buffer (Promega), 10 mM dithiothreitol (Invitrogen, USA) and 200 U MMLV-RT (Invitrogen) in a final volume of 20 μL. The reaction was carried out for 1 hour at 37° C., followed by 5 minutes at 99° C. Real-time PCR was performed using real-time PCR DICE and TB Green™ Premix Ex Taq™ II (Takara Bio). To calculate the relative microRNA (mRNA) expression level, the expression of each gene (e.g., α-SMA, TIMP-1, TGF-β and Collagen Type 1) was normalized to that of reference gene 36B4 (gene symbol: Rplp0). Information regarding the PCR-primer sets and the plate layout are described in Tables 1 and 2.

TIMP-1 = assay: UUO study: quantitative RT-PCR of kidney, TIMP-1; type: in vivo, C57BL/6 mice; conditions: UUO mice kidney
Procedure: as §1

Alpha-SMA [2] = assay: BDL study: quantitative RT-PCR of liver, Alpha-SMA; type: in vivo, C57BL/6J mice; conditions: BDL mice liver
Procedure: as §1, with “from liver” for “from kidney”, “4.4 mM” for “4.4 micromolar (mM) of”, “relative mRNA” for “relative microRNA (mRNA)”, “gene (α-SMA,” for “gene (e.g., α-SMA,”, “Tables 8” for “Tables 1”, “and 9.” for “and 2.”

Collagen Type 1 = assay: BDL study: quantitative RT-PCR of liver, Collagen Type 1; type: in vivo, C57BL/6J mice; conditions: BDL mice liver
Procedure: as §1, with “from liver” for “from kidney”, “4.4 mM” for “4.4 micromolar (mM) of”, “relative mRNA” for “relative microRNA (mRNA)”, “gene (α-SMA,” for “gene (e.g., α-SMA,”, “Tables 8” for “Tables 1”, “and 9.” for “and 2.”

[3] = system: TGF-β-stimulated intracellular signaling (SMAD2/3 phosphorylation); assay: TGF-β-stimulated SMAD2/3 phosphorylation in LX2 liver stellate cells; type: cell-based, human; conditions: 0 μM to 100 μM for 24 hours, then 30 min TGF-β stimulation, listed as 15-HEPE
[4] = system: EGFR (epidermal growth factor receptor); assay: Sucrose density gradient analysis in Mv1Lu cells, EGFR; type: cell-based, mink; conditions: 100 μM, 0, 1, 4 and 24 hours
Procedure: Sucrose gradient ultracentrifugation and confocal microscopy were used to identify 15-HEPE induced microdomain translocation of TGF-β receptors by sucrose. Sucrose density gradient analysis of TGF-β receptors was conducted in the plasma membranes of Mv1Lu cells (mink lung epithelial cell) treated with 100 μM of 15-HEPE and an equal volume of DMSO (dimethyl sulfoxide) at 37° C. for 0, 1, 4, and 24 hours, and the cell lysates from these treated cells were subjected to sucrose density gradient ultracentrifugation. The sucrose gradient fractions were then analyzed by Western blot analysis using anti-TβR-I (type I TGF-β receptor), anti-TβR-II (type II TGF-β receptor), anti-TβR-III (type III TGF-β receptor, betaglycan), anti-EGFR (epidermal growth factor receptor), and anti-caveolin-1 antibodies. The lipid raft/caveolae, and non-lipid raft microdomain localization of TβR-I, TβR-II, TβR-III, EGFR and caveolin-1 in the plasma membrane of untreated cells or cells treated with 15-HEPE were assessed to determine the effects of 15-HEPE on the membrane microdomain localization of the TGF-β receptors. […]

[5] = relative mRNA normalized to 36B4, 50 mg/kg PO QD Day 0-13
[6] = relative mRNA normalized to 36B4, 500 mg/kg PO QD Day 0-13
[7] = relative mRNA normalized to 36B4, 250 mg/kg PO QD Day 0-13

CC/C=C\CC(O)/C=C/C=C\C/C=C\C/C=C\CCCC(=O)O (stereo not shown) [DS102, 15-hydroxy-eicosa-5Z,8Z,11Z,13E,17Z-pentaenoic acid]
Alpha-SMA gene expression (Alpha-SMA [1]; [5]): 3.74 ± 0.81 | Alpha-SMA gene expression (Alpha-SMA [1]; [6]): 5.54 ± 1.54 | TIMP-1 gene expression (TIMP-1; [5]): 138.30 ± 30.39 | TIMP-1 gene expression (TIMP-1; [6]): 124.80 ± 28.60 | α-SMA mRNA expression level compared with the Vehicle group (Alpha-SMA [2]; 500 mg/kg): tended to decrease; also recorded: trend approaching significance | α-SMA mRNA expression level vs Vehicle group (Alpha-SMA [2]; DS102 treatment groups): no significant differences | Alpha-SMA gene expression (Alpha-SMA [2]; [5]): 3.21 ± 1.67 | Alpha-SMA gene expression (Alpha-SMA [2]; [7]): 2.66 ± 1.33 | Alpha-SMA gene expression (Alpha-SMA [2]; [6]): 1.42 ± 0.75 | Collagen Type 1 mRNA expression level compared with the Vehicle group (Collagen Type 1; 500 mg/kg): tended to decrease; also recorded: trend approaching significance | Collagen Type 1 mRNA expression level vs Vehicle group (Collagen Type 1; DS102 treatment groups): no significant differences | Collagen Type 1 gene expression (Collagen Type 1; [5]): 4.94 ± 2.76 | Collagen Type 1 gene expression (Collagen Type 1; [7]): 4.21 ± 1.90 | Collagen Type 1 gene expression (Collagen Type 1; [6]): 2.51 ± 1.39 | TGF-β-stimulated intracellular signaling (SMAD2/3 phosphorylation) [3]: inhibits TGF-β-stimulated intracellular signaling; also recorded: inhibited TGF-β induced intracellular signaling (SMAD2/3) | localization and abundance of EGFR [4]: did not change the localization and abundance
